Assays:
Assay in all cases: In Vitro Kinase Assay
[1] = target: Cyclin-dependent kinase 1 (Homo sapiens, UniProt P06493)
Source text: (§1) Kinase assay using cyclin-dependant kinases (CDK).

[2] = target: Cyclin-dependent kinase 9 (Homo sapiens, UniProt P50750)
Source text: as §1

[3] = target: Cyclin-dependent kinase 7 (Homo sapiens, UniProt P50613)
Source text: as §1

[4] = target: Cyclin-dependent kinase 2 (Homo sapiens, UniProt P24941)
Source text: as §1

[5] = target: Cyclin-dependent kinase 4 (Homo sapiens, UniProt P11802)
Cyclin-dependent kinase 4, sequence (P11802 whole entry): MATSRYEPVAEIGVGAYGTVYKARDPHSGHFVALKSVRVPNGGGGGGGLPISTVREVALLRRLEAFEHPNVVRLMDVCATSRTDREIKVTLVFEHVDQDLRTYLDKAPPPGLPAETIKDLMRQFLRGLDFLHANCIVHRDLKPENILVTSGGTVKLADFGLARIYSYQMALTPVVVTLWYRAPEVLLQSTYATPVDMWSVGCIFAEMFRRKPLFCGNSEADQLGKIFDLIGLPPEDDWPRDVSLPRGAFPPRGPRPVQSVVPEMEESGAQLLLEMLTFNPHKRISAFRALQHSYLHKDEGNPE
Source text: as §1

Cyclin-dependent kinase 7, sequence (P50613 whole entry): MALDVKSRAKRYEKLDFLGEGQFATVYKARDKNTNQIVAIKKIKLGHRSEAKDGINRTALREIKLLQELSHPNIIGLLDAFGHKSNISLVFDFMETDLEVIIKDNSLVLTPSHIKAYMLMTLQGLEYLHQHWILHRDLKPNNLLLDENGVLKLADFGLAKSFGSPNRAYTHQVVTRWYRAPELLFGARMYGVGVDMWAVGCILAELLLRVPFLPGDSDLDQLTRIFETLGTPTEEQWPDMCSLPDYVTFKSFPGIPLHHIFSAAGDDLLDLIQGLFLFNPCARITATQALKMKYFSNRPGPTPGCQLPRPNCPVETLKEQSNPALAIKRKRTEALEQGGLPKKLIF
Cyclin-dependent kinase 1, sequence (P06493 whole entry): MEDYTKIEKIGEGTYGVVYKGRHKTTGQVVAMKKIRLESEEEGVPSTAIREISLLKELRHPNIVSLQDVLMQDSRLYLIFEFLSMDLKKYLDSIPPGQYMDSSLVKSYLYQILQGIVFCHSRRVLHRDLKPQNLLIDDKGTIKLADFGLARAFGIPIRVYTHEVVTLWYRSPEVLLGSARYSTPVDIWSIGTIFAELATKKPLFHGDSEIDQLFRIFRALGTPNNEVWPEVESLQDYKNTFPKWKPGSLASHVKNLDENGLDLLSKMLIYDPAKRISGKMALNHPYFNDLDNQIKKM
Cyclin-dependent kinase 9, sequence (P50750 whole entry): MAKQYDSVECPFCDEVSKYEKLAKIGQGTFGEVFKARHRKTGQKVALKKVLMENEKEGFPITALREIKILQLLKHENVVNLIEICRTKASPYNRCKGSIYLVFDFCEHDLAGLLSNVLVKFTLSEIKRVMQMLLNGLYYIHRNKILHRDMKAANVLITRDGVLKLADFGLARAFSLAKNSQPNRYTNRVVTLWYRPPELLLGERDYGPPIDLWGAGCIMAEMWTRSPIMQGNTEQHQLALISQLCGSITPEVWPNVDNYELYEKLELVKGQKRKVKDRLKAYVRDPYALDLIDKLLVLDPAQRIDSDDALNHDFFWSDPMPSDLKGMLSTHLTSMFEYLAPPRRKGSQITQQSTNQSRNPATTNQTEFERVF

## CCNc1nc(C)c(-c2ccnc(Nc3cccc(S(N)(=O)=O)c3)n2)s1 [CDK Inhibitor, 2]
[1]
  Ki: 691 nM
[2]
  Ki: 4.5 nM
[3]
  Ki: 56 nM
[4]
  Ki: 403 nM
[5]
  Ki: 132 nM

## CNc1nc(C)c(-c2ccnc(Nc3cccc(S(N)(=O)=O)c3)n2)s1 [CDK Inhibitor, 3]
[1]
  Ki: 67 nM
[2]
  Ki: 0.8 nM
[3]
  Ki: 25 nM
[4]
  Ki: 2.4 nM
[5]
  Ki: 9.1 nM

## CNc1nc(C)c(-c2ccnc(Nc3cccc(S(=O)(=O)NC)c3)n2)s1 [CDK Inhibitor, 4]
[1]
  Ki: 334 nM
[2]
  Ki: 4.3 nM
[3]
  Ki: 107 nM
[4]
  Ki: 33 nM
[5]
  Ki: 20 nM

## CNS(=O)(=O)c1cccc(Nc2nccc(-c3sc(N)nc3C)n2)c1 [CDK Inhibitor, 5]
[1]
  Ki: 233 nM
[2]
  Ki: 4.3 nM
[3]
  Ki: 127 nM
[4]
  Ki: 26 nM
[5]
  Ki: 163 nM

## CNc1nc(C)c(-c2ccnc(Nc3cccc(S(C)(=O)=O)c3)n2)s1 [CDK Inhibitor, 6]
[1]
  Ki: 86 nM
[2]
  Ki: 0.29 nM
[3]
  Ki: 91 nM
[4]
  Ki: 1.6 nM
[5]
  Ki: 94 nM

## CCNc1nc(C)c(-c2ccnc(Nc3cccc(S(C)(=O)=O)c3)n2)s1 [CDK Inhibitor, 7]
[1]
  Ki: > 500 nM
[2]
  Ki: 0.96 nM
[3]
  Ki: 47 nM
[4]
  Ki: 7.6 nM
[5]
  Ki: 139 nM

## CCNS(=O)(=O)c1cccc(Nc2nccc(-c3sc(N)nc3C)n2)c1 [CDK Inhibitor, 8]
[1]
  Ki: 660 nM
[2]
  Ki: 5.9 nM
[3]
  Ki: 193 nM
[4]
  Ki: 47 nM
[5]
  Ki: 391 nM

## CNc1nc(C)c(-c2ccnc(Nc3ccc(C)c(S(=O)(=O)N4CCOCC4)c3)n2)s1 [CDK Inhibitor, 9]
[1]
  Ki: > 500 nM
[2]
  Ki: 6.7 nM
[3]
  Ki: 3470 nM
[4]
  Ki: > 500 nM
[5]
  Ki: > 500 nM

## Cc1ccc(Nc2nccc(-c3sc(N)nc3C)n2)cc1S(=O)(=O)N1CCOCC1 [CDK Inhibitor, 10]
[1]
  Ki: > 500 nM
[2]
  Ki: 8.5 nM
[3]
  Ki: 304 nM
[4]
  Ki: > 500 nM
[5]
  Ki: > 500 nM

## COCCNS(=O)(=O)c1ccc(Nc2nccc(-c3sc(=O)n(C)c3C)n2)cc1 [CDK Inhibitor, 11]
[5]
  Ki: > 500 nM

## Cc1c(-c2ccnc(Nc3cccc(C#N)c3)n2)sc(=O)n1C [CDK Inhibitor, 12]
[4]
  Ki: 0.52 nM
[5]
  Ki: 102 nM

## Cc1ccc(Nc2nccc(-c3sc(=O)n(C)c3C)n2)cc1[N+](=O)[O-] [CDK Inhibitor, 13]
[1]
  Ki: 3 nM
[2]
  Ki: 5.9 nM
[3]
  Ki: 0.56 nM
[4]
  Ki: 28 nM
[5]
  Ki: 60 nM

## Cc1c(-c2ccnc(Nc3ccc(N4CCNCC4)cc3)n2)sc(=O)n1C [CDK Inhibitor, 14]
[1]
  Ki: 449 nM
[2]
  Ki: 0.38 nM
[3]
  Ki: 2.3 nM
[4]
  Ki: 149 nM
[5]
  Ki: 68 nM
